This is an account of results in ChEMBL document CHEMBL1129840, “The synthesis and SAR of new 4-(N-alkyl-N-phenyl)amino-6,7-dimethoxyquinazolines and 4-(N-alkyl-N-phenyl)aminopyrazolo[3,4-d]pyrimidines, inhibitors of CSF-1R tyrosine kinase activity” (Bioorg Med Chem Lett, 1997).

Each structure is given as a SMILES string.

In experiment [1] the target is Macrophage colony-stimulating factor 1 receptor (Homo sapiens, UniProt P07333). Briefly: Antagonism towards Colony stimulating factor 1 receptor (CSF-1R). In kind it is functional.
The target of experiment [2] is Epidermal growth factor receptor (Homo sapiens, UniProt P00533). The experiment can be described thus: Antagonism towards Epidermal growth factor receptor.
The target of experiment [3] is Platelet-derived growth factor receptor (Homo sapiens, UniProt P09619+P16234). Briefly: Inhibition of platelet-derived growth factor receptor (PDGF-R).
Experiment [4] deals with Tyrosine-protein kinase Lck (Homo sapiens, UniProt P06239). The experiment can be described thus: Inhibition of p56 lck tyrosine kinase (inactive).
Sequence of Tyrosine-protein kinase Lck (P06239 whole entry): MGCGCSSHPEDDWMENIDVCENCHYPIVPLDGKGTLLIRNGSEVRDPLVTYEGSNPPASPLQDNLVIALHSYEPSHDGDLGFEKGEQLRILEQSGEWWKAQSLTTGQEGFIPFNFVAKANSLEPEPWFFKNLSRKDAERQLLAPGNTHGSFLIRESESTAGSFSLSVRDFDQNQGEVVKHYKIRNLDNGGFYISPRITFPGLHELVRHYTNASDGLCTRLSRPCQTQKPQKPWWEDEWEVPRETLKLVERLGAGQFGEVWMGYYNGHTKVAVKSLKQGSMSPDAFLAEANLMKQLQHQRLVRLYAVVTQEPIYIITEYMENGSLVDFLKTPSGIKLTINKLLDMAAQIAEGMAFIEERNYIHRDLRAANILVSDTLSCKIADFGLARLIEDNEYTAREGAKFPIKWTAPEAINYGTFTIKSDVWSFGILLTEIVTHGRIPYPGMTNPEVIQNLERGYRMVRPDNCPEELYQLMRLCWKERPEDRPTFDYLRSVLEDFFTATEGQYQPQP

Sequence of Macrophage colony-stimulating factor 1 receptor (P07333 whole entry): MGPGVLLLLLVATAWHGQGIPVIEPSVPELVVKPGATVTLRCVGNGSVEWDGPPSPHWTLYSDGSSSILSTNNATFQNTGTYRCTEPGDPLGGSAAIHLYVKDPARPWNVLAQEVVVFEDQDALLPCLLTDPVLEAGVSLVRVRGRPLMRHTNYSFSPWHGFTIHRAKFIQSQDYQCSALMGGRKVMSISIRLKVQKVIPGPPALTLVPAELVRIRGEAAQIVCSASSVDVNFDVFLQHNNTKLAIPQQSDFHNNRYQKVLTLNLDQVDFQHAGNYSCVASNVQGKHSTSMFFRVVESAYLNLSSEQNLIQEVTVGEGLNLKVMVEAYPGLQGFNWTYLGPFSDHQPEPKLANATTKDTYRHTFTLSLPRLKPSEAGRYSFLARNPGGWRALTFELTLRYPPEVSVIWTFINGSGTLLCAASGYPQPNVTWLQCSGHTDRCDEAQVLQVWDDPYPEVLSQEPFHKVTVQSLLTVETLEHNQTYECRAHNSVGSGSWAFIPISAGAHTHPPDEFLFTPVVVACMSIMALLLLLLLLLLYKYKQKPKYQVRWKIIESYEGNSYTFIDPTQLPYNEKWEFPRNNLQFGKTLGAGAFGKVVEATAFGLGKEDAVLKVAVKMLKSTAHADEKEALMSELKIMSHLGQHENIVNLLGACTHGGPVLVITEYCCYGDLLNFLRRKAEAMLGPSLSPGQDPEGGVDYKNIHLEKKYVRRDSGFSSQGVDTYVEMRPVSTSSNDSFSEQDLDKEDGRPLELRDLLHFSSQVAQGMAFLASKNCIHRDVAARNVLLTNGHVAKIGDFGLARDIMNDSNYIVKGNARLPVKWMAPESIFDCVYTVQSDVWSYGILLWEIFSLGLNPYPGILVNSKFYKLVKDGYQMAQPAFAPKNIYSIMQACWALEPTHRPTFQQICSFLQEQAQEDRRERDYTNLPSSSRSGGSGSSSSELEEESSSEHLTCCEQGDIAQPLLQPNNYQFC
Sequence of Epidermal growth factor receptor (P00533 whole entry): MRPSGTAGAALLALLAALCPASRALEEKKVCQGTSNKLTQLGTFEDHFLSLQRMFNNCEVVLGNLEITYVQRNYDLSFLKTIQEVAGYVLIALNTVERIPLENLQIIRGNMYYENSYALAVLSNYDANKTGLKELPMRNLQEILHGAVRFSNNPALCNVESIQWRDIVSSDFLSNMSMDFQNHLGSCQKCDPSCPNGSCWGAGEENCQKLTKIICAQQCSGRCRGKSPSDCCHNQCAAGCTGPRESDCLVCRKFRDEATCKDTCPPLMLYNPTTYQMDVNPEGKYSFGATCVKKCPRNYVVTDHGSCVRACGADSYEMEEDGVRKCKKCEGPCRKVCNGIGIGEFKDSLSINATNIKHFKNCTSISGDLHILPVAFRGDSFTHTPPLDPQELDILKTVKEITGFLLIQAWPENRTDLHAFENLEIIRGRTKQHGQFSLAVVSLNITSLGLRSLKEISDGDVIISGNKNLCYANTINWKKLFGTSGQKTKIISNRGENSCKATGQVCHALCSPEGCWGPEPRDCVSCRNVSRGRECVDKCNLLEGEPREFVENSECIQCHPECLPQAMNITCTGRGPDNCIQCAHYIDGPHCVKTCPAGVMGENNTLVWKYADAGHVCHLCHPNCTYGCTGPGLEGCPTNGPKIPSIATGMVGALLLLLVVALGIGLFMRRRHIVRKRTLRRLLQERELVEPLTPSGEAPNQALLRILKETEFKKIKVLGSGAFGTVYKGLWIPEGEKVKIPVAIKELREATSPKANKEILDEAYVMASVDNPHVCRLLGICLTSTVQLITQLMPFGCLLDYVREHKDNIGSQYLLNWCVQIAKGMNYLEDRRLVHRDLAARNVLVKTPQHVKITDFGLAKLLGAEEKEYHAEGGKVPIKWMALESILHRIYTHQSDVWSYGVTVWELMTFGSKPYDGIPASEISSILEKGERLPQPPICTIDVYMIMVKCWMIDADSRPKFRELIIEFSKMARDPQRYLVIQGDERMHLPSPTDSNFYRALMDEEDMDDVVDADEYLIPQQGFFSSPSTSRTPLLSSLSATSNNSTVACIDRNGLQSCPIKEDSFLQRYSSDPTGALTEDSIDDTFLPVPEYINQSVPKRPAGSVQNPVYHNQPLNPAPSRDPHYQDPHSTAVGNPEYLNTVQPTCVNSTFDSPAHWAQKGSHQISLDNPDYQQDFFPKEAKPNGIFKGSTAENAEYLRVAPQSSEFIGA

With `COc1cc2ncnc(N(C)c3cccc(C)c3)c2cc1OC`, the IC50 is 0.18 µM in experiment [1] and 12 µM in experiment [2].
For `COc1cc2ncnc(N(C)c3ccc(C)cc3)c2cc1OC`, the IC50 was determined as 2 µM in experiment [1] and 4 µM in experiment [2].
Turning to `CCN(c1ccccc1)c1ncnc2cc(OC)c(OC)cc12`, the IC50 in experiment [2] worked out at 5.5 µM.
On to `COc1cc2ncnc(N(C)c3ccc(Cl)cc3)c2cc1OC`, for which the IC50 stood at 2.1 µM in experiment [1] and 3 µM in experiment [2].
In the same order, the values of `COc1cc2nc(Cl)nc(N(C)c3ccccc3)c2cc1OC` are more than 50 µM and more than 50 µM.
Take `COc1cc2ncnc(N(C)c3cccc(C(F)(F)F)c3)c2cc1OC`: the figures for the IC50 in experiment [1] and in experiment [2] were 0.5 µM and 30 µM, respectively.
In the case of `COc1cc2ncnc(N(C)c3ccccc3)c2cc1OC`, the IC50 in experiment [3] is 15 µM; in experiment [4] it was more than 100 µM; in experiment [2], 4 µM.
Take `CN(c1ccccc1)c1[nH]cnc2nncc1-2`: the IC50 in experiment [1] was 0.6 µM; in experiment [2], more than 50 µM.
In the same order, the values of `COc1cc2ncnc(N3CCc4ccccc43)c2cc1OC` are 5 µM and 3 µM.
For `Cc1cccc(N(C)c2ncnc3n[nH]cc23)c1`, the IC50 in experiment [1] is 0.18 µM; in experiment [2], more than 50 µM.
In the same order, the values of `COc1cc2ncnc(N(C)c3cccc(Cl)c3)c2cc1OC` are 1.5 µM and 0.1 µM.
As to `COc1cc2ncnc(Nc3ccccc3)c2cc1OC`, the IC50 in experiment [1] was more than 50 µM; in experiment [2], 0.05 µM.
In the case of `COc1cc2c(N(C)c3ccccc3)ncnc2c(OC)c1OC`, the IC50 in experiment [1] and in experiment [2] was more than 20 µM throughout.
With `COc1ccc2ncnc(N(C)c3ccccc3)c2c1`, the values for the IC50 in experiment [1] and in experiment [2] were 20 µM and more than 20 µM, respectively.
In the same order, the values of `CN(c1ccccc1)c1ncnc2ccccc12` are more than 20 µM and more than 50 µM.
For `Cc1cc(C)c2ncnc(N(C)c3ccccc3)c2c1`, the IC50 in experiment [1] and in experiment [2] was more than 20 µM each time.
Regarding `COc1cc2ncnc(Nc3cc(OC)c(OC)c(OC)c3)c2cc1OC`, the figures for the IC50 in experiment [1] and in experiment [3] were more than 100 µM and 20 µM, respectively.
Turning to `CN(c1ccccc1)c1ncnc2ccc(Cl)cc12`, the IC50 in experiment [1] was 5 µM; in experiment [2], more than 20 µM.
Turning to `COc1nc(N(C)c2ccccc2)c2cc(OC)c(OC)cc2n1`, the IC50 in experiment [1] and in experiment [2] was more than 50 µM each time.
For `Cc1cccc(N(C)c2ncnc3cc(C)c(C)cc23)c1`, the IC50 in experiment [1] was determined as 1.6 µM; in experiment [2], 6.5 µM.
In the case of `CN(c1ccccc1)c1ncnc2[nH]cnc12`, the IC50 is 4 µM in experiment [1] and 2 µM in experiment [2].

What is called IC50 is the point on the concentration scale where inhibition reaches its midpoint. A low value points to greater potency.
